The results in this text go back to PMC11672801, “Synthesis of Temporin-SHa Retro Analogs with Lysine Addition/Substitution and Antibiotic Conjugation to Enhance Antibacterial, Antifungal, and Anticancer Activities” (Antibiotics, 2024).

Molecules are shown by their SMILES. In brackets after ≈: the same amount, converted by molar mass.

For one series, the system named is C. albicans (ATCC 36082). The series is described as follows: microbe, parasite or virus in culture. Particulars: Candida albicans, ATCC36082, 24 h, read-out: MIC C. albicans (ATCC 36082). As to the method: Candida albicans (ATCC 36082) was cultured on Sabourad Dextrose Agar (SDA). A single colony was inoculated in Sabouraud Dextrose Broth (SDB) medium and grown overnight at 37 °C while shaking. The next day, the susceptibility of C. albicans was tested using a broth microdilution assay. Peptide analogs were diluted in SDB media by two-fold dilution, resulting in 100 µL of medium containing increasing concentrations of analogs. The overnight culture (turbidity at OD600 = 1) was 1000× diluted in SDB. Then 100 µL of this suspension was added to each well, resulting in a final 200 µL suspension containing 2–4 × 10^5 CFU/mL. The plate was incubated at 37 °C for 24 h. The next day, MIC (Minimum Inhibitory Concentration) values were determined as the concentrations of peptides causing > 99% inhibition of yeast growth.

Series [1] concerns P. aeruginosa (ATCC 10145). Briefly: Antibacterial broth microdilution MIC assay. It counts as cell-based, Pseudomonas aeruginosa. To be noted: Pseudomonas aeruginosa, ATCC10145; >99% inhibition of growth, MH broth, 20-22 h, 37 °C. As to the method:
(§1) The antibacterial activity of peptide analogs was tested against different bacterial strains, i.e., Salmonella enterica subsp. enterica serotype Typhimurium or Salmonella typhi (ATCC 14028), Staphylococcus aureus (NCTC 13277), Bacillus subtilis (ATCC 23857), Escherichia coli (ATCC 25922), and Pseudomonas aeruginosa (ATCC 10145). These strains were obtained from the microbial bank of Dr. Panjwani Center for Molecular Medicine and Drug research (PCMD), International Center for Chemical and Biological Sciences (ICCBS), University of Karachi. Colonies of these bacterial strains were grown in respective agar media, then inoculated in Mueller Hinton (MH) broth (Oxoid, UK) and incubated at 37 °C overnight. The peptide solutions were first diluted 1 in 100 (from the stock solution at 20 mM) and then further two-fold dilution in MH broth in a sterile 96-well plate was performed, resulting in 100 µL of broth containing increasing concentrations of analogs. Bacteria in their exponential growth phase were diluted in MH broth, and 100 µL of this suspension was added in each well. […] Then, these plates were incubated at 37 °C for 20–22 h. MIC (Minimum Inhibitory Concentration) values were determined as the concentrations of peptides causing >99% inhibition of bacterial growth.
In general terms: Broth dilution looks for growth in wells or tubes with falling amounts of substance.

A further series concerns S. typhi (ATCC 14028). The series is described as follows: microbe, parasite or virus in culture. To be noted: Salmonella enterica, read-out: MIC S. typhi (ATCC 14028).
The next series relates to B. subtilis (ATCC 23857). The series is described as follows: Antibacterial broth microdilution MIC assay. Type of series: cell-based, Bacillus subtilis. Particulars: Bacillus subtilis, ATCC23857; >99% inhibition of growth, MH broth, 20-22 h, 37 °C. On the procedure:
as §1

Series [2] concerns Human breast cancer (MCF-7) cells. Briefly: cells. Type of series: cell-based. Particulars: Homo sapiens, MCF7; MTT, 24 h exposure; read-out: IC50 on Breast Cancer (MCF-7). On the procedure: (§2) Human breast cancer (MCF-7) and human cervical cancer (HeLa) cells were obtained from the cell culture bank of PCMD in ICCBS, University of Karachi. These cells were maintained in Dulbecco’s Modified Eagle Medium (DMEM), supplemented with 10% fetal bovine serum, and incubated at 37 °C and 5% CO2. The antiproliferative activity of the samples was determined by a MTT assay. Briefly, the cells were washed with PBS and trypsinized. After determination of the cell number using Malassez cell counting, 100 µL of the cell suspension were seeded in a 96-well plate at the density of 6000 cells/well and incubated at 37 °C and 5% CO2. After 24 h, the cells were treated with increasing concentrations of analogs. The next day, media was removed and 200 µL of MTT dye (0.5 mg/mL) was added in each well and incubated for 3 h at 37 °C in 5% CO2 incubator. Then, the media was removed and 100 µL of DMSO was added to solubilize formazan crystals. After one minute of shaking, the absorbance was recorded at 540 nm in microplate reader (Multiskan GO, ThermoScientific, Waltham, MA, USA). Finally, the percent inhibition of proliferation was calculated using the following formula: % inhibition of proliferation=O.D of treated well−O.D of media control/O.D of untreated control−O.D of media control×100

For series [3], the system named is human cervical cancer (HeLa) cells. The series is described as follows: cells. Type of series: cell-based. To be noted: Homo sapiens, HeLa; MTT, 24 h exposure; read-out: IC50 on Cervical Cancer (HeLa). On the procedure:
as §2

Series [4] concerns human red blood cells (RBC). The series is described as follows: Hemolytic assay. Type of series: cell-based. To be noted: human, 1 h. As to the method:
For the hemolytic assay, fresh human blood (2 mL) was obtained from a healthy donor in EDTA tube while following the protocol of approval from the Independent Ethics Committee of ICCBS (approval number ICCBS/IEC-047-HB-2019/Protocol/1.0). The blood was centrifuged and upper supernatant plasma was removed. The cell pellets were washed with sterile PBS three times. The washed blood cells were then diluted 25 times to make 4% concentration of the initial blood cells. Red blood cells (500 µL) were treated with increasing concentrations of analogs, with triton X-100 at 0.1% being used as positive control giving 100% hemolysis. After 1 h of incubation at 37 °C, tubes were centrifuged at 800 rpm for 5 min to pellet down red blood cells. After centrifugation, 200 µL of supernatant were transferred into a 96 well plate and the absorbance was recorded at 576 nm using a microplate reader (MultiSkan Go, ThermoScientific). Then, the following formula was applied to calculate percent hemolysis: % Hemolysis=O.D of test sample−O.D of PBS control/O.D of Tritox×positive control−O.D of PBS control×100

The subject of another series is S. aureus (NCTC 13277). Briefly: microbe, parasite or virus in culture. Particulars: Staphylococcus aureus, NCTC13277, read-out: MIC S. aureus (NCTC 13277).
A further series has as its system E. coli (ATCC 25922). The series is described as follows: Antibacterial broth microdilution MIC assay. Type of series: cell-based, Escherichia coli. Particulars: Escherichia coli, ATCC25922; >99% inhibition of growth, MH broth, 20-22 h, 37 °C. As to the method:
as §1

Broadly, the IC50 is the concentration that gives 50% inhibition. In the case of `C[C@H]1COc2c(N3CCN(C)CC3)c(F)cc3c(=O)c(C(=O)O)cn1c23` [Levofloxacin, reference compound], the MIC with C. albicans (ATCC 36082) is above 250 µM; in series [1] it was 1.56 µM (≈ 0.564 µg/mL); in the series on S. typhi (ATCC 14028), 0.39 µM (≈ 0.141 µg/mL); in the series with B. subtilis (ATCC 23857), 0.39 µM (≈ 0.141 µg/mL); with S. aureus (NCTC 13277), 25 µM (≈ 9.03 µg/mL); in the series on E. coli (ATCC 25922), 0.78 µM (≈ 0.282 µg/mL). Further, the IC50 in series [2] and in series [3] was above 100 µM in each case. Also, the “HC50 on Human Red Blood Cells (RBCs)” value in series [4] is above 100 µM.
